Reference: patent US20250223297A1, “NOVEL RAPAMYCIN DERIVATIVES” (Novartis AG, priority 2017, published 2025)

Key:
[1] = test system: mTORC1 signaling (pS6 Ser240/244) in MEF TSC1−/− cells; experiment: MEF TSC1-/- cell based assay for rapalog potency (pS6); parameters: species or system mouse; details: Mus musculus, 2 h, 2 h treatment, average from multiple assays
From the text: Potency of mTOR inhibitors may also be determined using a MEF TSC1−/− cell-based assay. MEF TSC1−/− cells are Mouse Embryonic Fibroblasts deficient in the Tuberous sclerosis protein, TSC1, which negatively regulates mTORC1 signaling. Thus, the deficiency of TSC1 induces constitutive mTORC1 activation, resulting in phosphorylation (activation) of the downstream proteins in the mTORC1 signaling pathways. This cell-based assay is used to measure inhibition (de-phosphorylation) of the mTORC1 signaling components S6 and 4EBP1, by rapalogs or other mTOR inhibitors.
The assay is typically carried out as follows: MEF TSC1−/− cells are plated on Poly-D-lysine coated 384 well Griener clear bottom plates and incubated overnight at 37° C., 5% CO2. […] Cells are fixed with 4% paraformaldehyde for 30 min and washed 5 times with TBS-EDTA followed by immuno-staining with florescent tag labeled antibodies for pS6 and p4EBP1. Nuclei are visualized with Hoechst staining. Cells are imaged using respective florescence channels and the potency of mTOR inhibitors is defined by pS6 IC50 (nM).
Cell-based assay for rapalog potency determination. Rapalog potency was determined using MEF TSC1−/− cell based assay. MEF TSC1−/− cells are Mouse Embryonic Fibroblasts deficient in Tuberous sclerosis protein-TSC1, which negatively regulates mTORC1 signaling and thus display constitutive mTORC1 activation, resulting in phosphorylation (activation) of downstream molecules. This cell-based assay is used to measure inhibition (de-phosphorylation) of S6 and 4EBP1 by rapalogs or other mTOR inhibitors.
MEF TSC1−/− cells were plated on Poly-D-lysine coated 384 well Griener clear bottom plates and incubated overnight at 37° C., 5% CO2. […] Nuclei were visualized with Hoechst (ThermoFisher Scientific #H3570) staining. Cells were imaged (InCell 600) using respective fluorescence channels and the potency of mTOR inhibitors was defined by pS6 IC50 (nM).
In vitro potency of mTOR inhibitors was defined by pS6 IC50 (nM) in MEF TSC1−/− cells.
IC50 values are calculated as the average from multiple assays.

FKBP12 = FKBP12 (Homo sapiens (Human), UniProt P62942); experiment: SPR assay, binding affinity to FKBP12; details: single-cycle kinetics
Chain of FKBP12 (P62942 whole entry, the tested form may be a part): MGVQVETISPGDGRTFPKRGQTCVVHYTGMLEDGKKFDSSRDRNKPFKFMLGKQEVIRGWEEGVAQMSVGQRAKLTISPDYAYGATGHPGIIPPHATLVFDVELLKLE
Experimental: (§1) SPR Assay to Determine Binding Affinity to FK506-Binding Proteins (FKBP). N-terminal avi-his6 tagged FKBP fusions to FKBP12, FKBP51 and FKBP52 were expressed in E. coli and purified using standard chromatography. Each protein was subsequently immobilized on a streptavidin chip in a Biacore 8K SPR instrument (GE Healthcare). Using single-cycle kinetics, compound titrations were flowed at 45 uL/min over each surface using 2-minute association and 30-minute dissociation phases in a buffer containing 50 mM Tris pH 7.5/150 mM NaCl/0.01% Tween 20/1 mM DTT/2% DMSO. The data was fit using low molecular weight (LMW) single-cycle kinetics. The equilibrium dissociation constants (KD) are reported. […]

FKBP52 = FKBP52 (Homo sapiens (Human), UniProt Q02790); experiment: SPR assay, binding affinity to FKBP52; details: single-cycle kinetics
Chain of FKBP52 (Q02790 whole entry): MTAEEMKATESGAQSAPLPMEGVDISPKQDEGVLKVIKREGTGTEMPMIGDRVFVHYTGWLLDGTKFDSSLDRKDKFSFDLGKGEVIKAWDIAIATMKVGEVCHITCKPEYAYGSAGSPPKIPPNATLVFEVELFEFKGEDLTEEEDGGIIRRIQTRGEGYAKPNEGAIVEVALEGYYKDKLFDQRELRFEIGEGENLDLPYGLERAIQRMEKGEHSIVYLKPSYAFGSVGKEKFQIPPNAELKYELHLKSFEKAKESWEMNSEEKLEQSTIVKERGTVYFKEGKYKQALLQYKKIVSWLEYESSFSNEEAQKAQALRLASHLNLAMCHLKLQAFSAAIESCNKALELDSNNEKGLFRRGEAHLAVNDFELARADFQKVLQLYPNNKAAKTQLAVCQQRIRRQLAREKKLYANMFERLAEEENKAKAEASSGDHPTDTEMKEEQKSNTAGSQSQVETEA
Experimental: as §1

[2] = Comparative blood and brain concentrations in rats after single p.o. dose; assay type: in vivo; details: rat, single p.o. dose 3, 10, 30 mg/kg; 3 h and 24 h
Experimental: Concentrations were determined using HPLC/Mass spectrometry. […] Blood and brain tissues were collected at 3 hours (h) and 24 h following treatment to determine concentrations of the compounds.

[3] = test system: mTORC1 pathway (S6 phosphorylation) in rat liver; experiment: Inhibition of mTORC1 pathway in rat liver (p-S6/t-S6 immunoblot); assay type: in vivo
Experimental: Protein extraction and immunoblotting. For protein extraction, snap frozen tissues were lysed in MSD Lysis Buffer (MSD, Rockville, Maryland), supplemented with complete EDTA free protease inhibitor and PhosSTOP phosphatase inhibitor tablets (Roche, Manheim, Germany), and centrifuged at 13,000g for 20 min at 4° C. The resultant supernatant was used for immunoblotting. Protein was quantified with BCA protein assay (Thermo Scientific, MA). Samples were resolved on 4-20% Criterion™ TGX™ Precast Midi Protein gels (Bio-Rad, CA) and transferred onto nitrocellulose membranes (Bio-Rad, CA) using a Trans Turbo Blot system (Bio-Rad, CA). Immunoblotting was performed with antibodies to p-S6 and t-S6 from Cell Signaling Technologies (all 1:1000 in TBS-T with 5% BSA). The ‘p’ and ‘t’ prefixes signify ‘phosphorylated’ and ‘total’ forms respectively. HRP-conjugated secondary antibodies against rabbit (#7074) were from Cell Signaling Technologies, MA. […] Resultant digital images were converted into a TIFF format and quantified using ImageJ software.
The ability of Example 2 to inhibit mTORC1 pathway in vivo was determined in rats aged 4 months (FIG. 5A-5D).

[4] = test system: S6K1 (Thr389) phosphorylation (mTORC1 activity) in WT 293T cells; experiment: S6K1 (Thr389) phosphorylation ELISA in wild-type 293T cells; assay type: cell-based; details: 2 h, relative to DMSO
Experimental: WT, FKBP12 knock-down and FKBP12 knock-out 293T cells were plated at a density of 30,000 cells per well in poly-D-Lysine coated 96-well plates (Corning, #354461) in Dulbecco's modified Eagle's medium (ThermoFisher, #11995-065) supplemented with 10% fetal bovine serum (ThermoFisher, #16140-071). Cells were incubated at 37° C., 5% CO2 for 48 hours until they reached ˜80% confluence. […] Media supplemented with blank Dimethyl sulfoxide (DMSO) was used as a control for both compounds. Phosphorylated amounts of S6K1 (Thr389) were detected by a sandwich ELISA kit (Cell signaling, #7063C) following the manufacture's protocol.
S6K1 is a downstream target of mTORC1 and phosphorylation of its rapalog-sensitive Thr389 site is used as a functional readout of mTORC1 activity. Lee, C. H., Inoki, K. and Guan, K. L. (2007). mTOR pathway as a target in […]. Annu. Rev. Pharmacol. Toxicol. 47. 443-467. […] In FKBP12 knock-out cells. […] Such specificity of Example 2 to FKBP12 may facilitate targeting cells and tissues with relatively high levels of FKBP12 expression, while avoiding (or minimizing) side effects in the tissues where FKBP12 is weakly expressed.

[5] = test system: S6K1 (Thr389) phosphorylation (mTORC1 activity) in FKBP12 knock-down 293T cells; experiment: S6K1 (Thr389) phosphorylation ELISA in FKBP12 knock-down 293T cells; assay type: cell-based; details: 2 h, relative to DMSO
[6] = test system: S6K1 (Thr389) phosphorylation (mTORC1 activity) in FKBP12 knock-out 293T cells; experiment: S6K1 (Thr389) phosphorylation ELISA in FKBP12 knock-out 293T cells; assay type: cell-based; details: 2 h, relative to DMSO

IC50 [1]: 0.274 nM | Kd (FKBP12): 16 nM | Kd (FKBP52): > 10 µM | blood concentrations compared with RAD001 [2]: higher | brain concentrations compared with RAD001 [2]: higher
Compound: CO[C@@H]1C[C@H](C[C@@H](C)[C@@H]2CC[C@H](C)/C=C(\C)[C@@H](O)[C@@H](OC)C(=O)[C@H](C)C[C@H](C)/C=C/C=C/C=C(\C)[C@H](N3CCCS3(=O)=O)C[C@@H]3CC[C@@H](C)[C@@](O)(O3)C(=O)C(=O)N3CCCC[C@H]3C(=O)O2)CC[C@H]1O [Example 2, (R)-C16-(1,1-dioxidoisothiazolidin-2-yl)-C32-deoxo-rapamycin]
S6 inactivation in rat liver, 24 h ([3]; 24 h following dosing with 10 (trend p=0.06) and 30 mg/kg): remained inactivated | de-phosphorylation (inactivation) of S6 in rat liver, 3 h ([3]; single p.o. dose 3, 10 and 30 mg/kg, three hours following dosing, vs vehicle): significant de-phosphorylation | inhibition of S6K1 (Thr389) [4]: ~80% | maximum inhibition of S6K1 (Thr389) [5]: ~40% | inhibition of S6K1 (Thr389) phosphorylation [6]: failed to inhibit
